From ChEMBL document CHEMBL1201862, “PubChem BioAssay data set” (2004)
Activity calls are given as the source filed them. No stated cut-off is given here; in the data, actives have a measured IC50 and inactives only a lower limit.

Molecular target: Envelope glycoprotein gp160 (Human immunodeficiency virus 1, UniProt Q6QLK5)
Experiment: inhibitors of HIV fusion peptide binding, primary screen, biochemical, uHTS, fluorescence dequenching (AID 1986)

Chain of Envelope glycoprotein gp160 (Q6QLK5 whole entry, the tested form may be a part): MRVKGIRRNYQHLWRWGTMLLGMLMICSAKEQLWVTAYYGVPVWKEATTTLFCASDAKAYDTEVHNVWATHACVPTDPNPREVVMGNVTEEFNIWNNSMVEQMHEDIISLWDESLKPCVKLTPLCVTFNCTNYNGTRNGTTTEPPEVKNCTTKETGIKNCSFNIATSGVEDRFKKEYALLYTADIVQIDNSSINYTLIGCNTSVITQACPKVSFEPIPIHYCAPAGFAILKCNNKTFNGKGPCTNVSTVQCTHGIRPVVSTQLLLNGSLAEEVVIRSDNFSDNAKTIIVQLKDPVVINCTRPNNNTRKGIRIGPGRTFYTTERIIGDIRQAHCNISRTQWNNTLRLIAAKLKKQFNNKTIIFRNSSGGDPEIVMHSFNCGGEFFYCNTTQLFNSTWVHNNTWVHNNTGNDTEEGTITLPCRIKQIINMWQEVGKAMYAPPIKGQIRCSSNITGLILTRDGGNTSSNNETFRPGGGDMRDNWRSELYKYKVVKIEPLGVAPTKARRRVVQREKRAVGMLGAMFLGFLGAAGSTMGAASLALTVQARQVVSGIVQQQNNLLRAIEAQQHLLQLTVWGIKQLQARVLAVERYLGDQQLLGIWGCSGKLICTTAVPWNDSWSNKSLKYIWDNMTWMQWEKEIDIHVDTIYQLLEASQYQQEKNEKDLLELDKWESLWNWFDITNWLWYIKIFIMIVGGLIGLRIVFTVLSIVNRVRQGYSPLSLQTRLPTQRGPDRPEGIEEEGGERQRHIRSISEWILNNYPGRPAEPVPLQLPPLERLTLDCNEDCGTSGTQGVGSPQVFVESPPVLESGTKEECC

## Cc1cc(Cl)ccc1OC(C)C(=O)Nc1ccc(S(=O)(=O)Nc2cnc3ccccc3n2)cc1 (stereo unspecified)
  IC50: 21.3 µM (active)
